Assay results reported in patent US10669285B2, “Condensed [1,4] diazepine compounds as autotaxin (ATX) and lysophosphatidic acid (LPA) production inhibitors” (Hoffmann-La Roche Inc., priority 2014, dated 2020).

These compounds were tested against ATX (human His-tagged) (Homo sapiens (Human), UniProt Q13822) (assay: Human ATX enzyme inhibition assay (fluorescence quenching, MR121 substrate)). Details: inhibitory activity against ATX; 30 nM ATX, 1 μM MR121 substrate, 30° C.
Assay type: biochemical
Description: Human ATX Enzyme Inhibition Assay
ATX inhibition was measured by a fluorescence quenching assay using a specifically labeled substrate analogue (MR121 substrate). To obtain this MR121 substrate, BOC and TBS protected 6-amino-hexanoic acid (R)-3-({2-[3-(2-{2-[2-(2-amino-ethoxy)-ethoxy]-ethoxy}-ethoxy)-propionylamino]-ethoxy}-hydroxy-phosphoryloxy)-2-hydroxy-propyl ester (Ferguson et al., Org Lett 2006, 8 (10), 2023) was labeled with MR121 fluorophore (CAS 185308-24-1, 1-(3-carboxypropyl)-11-ethyl-1,2,3,4,8,9,10,11-octahydro-dipyrido[3,2-b:2′,3′-i]phenoxazin-13-ium) on the free amine of the ethanolamine side and then, after deprotection, subsequently with tryptophan on the side of the aminohexanoic acid.
Assay working solutions were made as follows:
Assay buffer (50 mM Tris-HCl, 140 mM NaCl, 5 mM KCl, 1 mM CaCl2, 1 mM MgCl2, 0.01% Triton-X-100, pH 8.0;
ATX solution: ATX (human His-tagged) stock solution (1.08 mg/mL in 20 mM bicine, pH 8.5, 0.15 M NaCl, 10% glycerol, 0.3% CHAPS, 0.02% NaN3), diluted to 1.4-2.5× final concentration in assay buffer;
MR121 substrate solution: MR121 substrate stock solution (800 μM MR121 substrate in DMSO), diluted to 2-5× final concentration in assay buffer.
Test compounds (10 mM stock in DMSO, 8 μL) were obtained in 384 well sample plates (Corning Costar #3655) and diluted with 8 μL DMSO. Row-wise serial dilutions were made by transferring 8 μL cpd solution to the next row up to […]. The compound and control solutions were mixed five times and 2 μL were transferred to 384 well assay plates (Corning Costar #3702). Then, 15 μL of 41.7 nM ATX solution was added (30 nM final concentration), mixed five times and then incubated for 15 minutes at 30° C. 10 μL of MR121 substrate solution was added (1 μM final concentration), mixed 30 times and then incubated for 15 minutes at 30° C. Fluorescence was then measured every 2 minutes for 1 hour (Perkin Elmer plate: vision multimode reader); light intensity: 2.5%; exp. time: 1.4 sec, Filter: Fluo_630/690 nm) and IC50 values were calculated from these readouts.

`N#Cc1ccc(COC(=O)N2CCc3cc(C(=O)N4CCc5[nH]nnc5C4)nn3CC2)c(F)c1` [Example 8, 4-Cyano-2-fluorobenzyl 2-(4,5,6,7-tetrahydro-1H-[1,2,3]triazolo[4,5-c]pyridine-5-carbonyl)-7,8-dihydro-4H-pyrazolo[1,5-d][1,4]diazepine-6(5H)-carboxylate] was tested. Which IC50 did it give?
The IC50 was 60 nM.

Which IC50 does the source give for `O=C(OCc1ccc(OC(F)(F)F)cc1F)N1CCc2nc(C(=O)N3CCc4[nH]nnc4C3)nn2CC1` [Example 35, [2-fluoro-4-(trifluoromethoxy)phenyl]methyl 2-(1,4,6,7-tetrahydrotriazolo[4,5-c]pyridine-5-carbonyl)-5,6,8,9-tetrahydro-[1,2,4]triazolo[1,5-d][1,4]diazepine-7-carboxylate] here?
The IC50 was 13 nM.

With `O=C(OCc1ccc(OC(F)(F)F)cc1F)N1CCc2cc(C(=O)N3CCc4[nH]nnc4C3)nn2CC1` [Example 4, 2-Fluoro-4-(trifluoromethoxy)benzyl 2-(4,5,6,7-tetrahydro-1H-[1,2,3]triazolo[4,5-c]pyridine-5-carbonyl)-7,8-dihydro-4H-pyrazolo[1,5-d][1,4]diazepine-6(5H)-carboxylate] as the compound, how does the IC50 read?
Its IC50 is 7 nM.

How did the IC50 turn out when `O=C(OCc1ccc(F)cc1)N1CCc2cc(C(=O)N3CCc4[nH]nnc4C3)nn2CC1` [Example 28, 4-fluorobenzyl 2-(4,5,6,7-tetrahydro-1H-[1,2,3]triazolo[4,5-c]pyridine-5-carbonyl)-7,8-dihydro-4H-pyrazolo[1,5-d][1,4]diazepine-6(5H)-carboxylate] was run?
The IC50 was 76 nM.

How did the IC50 turn out when `O=C(CCc1ccc(OC(F)(F)F)cc1)N1CCc2cc(C(=O)N3CCc4[nH]nnc4C3)nn2CC1` [Example 14, 1-[2-(1,4,6,7-tetrahydrotriazolo[4,5-c]pyridine-5-carbonyl)-4,5,7,8-tetrahydropyrazolo[1,5-d][1,4]diazepin-6-yl]-3-[4-(trifluoromethoxy)phenyl]propan-1-one] was run?
The IC50 was 14 nM.

`N#Cc1ccc(COC(=O)N2CCc3cc(C(=O)N4CCc5[nH]nnc5C4)nn3CC2)cc1` [Example 6, 4-Cyanobenzyl 2-(4,5,6,7-tetrahydro-1H-[1,2,3]triazolo[4,5-c]pyridine-5-carbonyl)-7,8-dihydro-4H-pyrazolo[1,5-d][1,4]diazepine-6(5H)-carboxylate] was tested. Which IC50 did it give?
The IC50 was 4 nM.

Which IC50 does the source give for `O=C(OCc1ccc(F)c(F)c1)N1CCc2cc(C(=O)N3CCc4[nH]nnc4C3)nn2CC1` [Example 30, (3,4-difluorophenyl)methyl 2-(1,4,6,7-tetrahydrotriazolo[4,5-c]pyridine-5-carbonyl)-4,5,7,8-tetrahydropyrazolo[1,5-d][1,4]diazepine-6-carboxylate] here?
Its IC50 is 41 nM.

`O=C1N[C@@H]2CCN(C(=O)c3nc4n(n3)CCN(C(=O)OCc3ccc(OC(F)(F)F)c(F)c3)CC4)C[C@H]2O1` [Example 43, 3-fluoro-4-(trifluoromethoxy)benzyl 2-((3aR,7aR)-2-oxooctahydrooxazolo[5,4-c]pyridine-5-carbonyl)-8,9-dihydro-5H-[1,2,4]triazolo[1,5-d][1,4]diazepine-7(6H)-carboxylate] was tested. Which IC50 did it give?
Its IC50 is 56 nM.

`O=C(OCc1ccccc1)N1CCc2cc(C(=O)N3CCc4[nH]nnc4C3)nn2CC1` [Example 1, Benzyl 2-(1,4,6,7-tetrahydrotriazolo[4,5-c]pyridine-5-carbonyl)-4,5,7,8-tetrahydropyrazolo[1,5-d][1,4]diazepine-6-carboxylate] was tested. Which IC50 did it give?
The IC50 was 158 nM.

With `CC(C)(C)C(=O)Nc1cc(C#N)ccc1COC(=O)N1CCc2cc(C(=O)N3CCc4[nH]nnc4C3)nn2CC1` [Example 10, [4-Cyano-2-(2,2-dimethylpropanoylamino)phenyl]methyl 2-(1,4,6,7-tetrahydrotriazolo[4,5-c]pyridine-5-carbonyl)-4,5,7,8-tetrahydropyrazolo[1,5-d][1,4]diazepine-6-carboxylate] as the compound, how does the IC50 read?
Its IC50 is 18 nM.

`O=C(CCc1ccc(OC(F)(F)F)cc1)N1CCc2nc(C(=O)N3CCc4[nH]nnc4C3)nn2CC1` [Example 20, 1-[2-(1,4,6,7-tetrahydrotriazolo[4,5-c]pyridine-5-carbonyl)-5,6,8,9-tetrahydro-[1,2,4]triazolo[1,5-d][1,4]diazepin-7-yl]-3-[4-(trifluoromethoxy)phenyl]propan-1-one] was tested. Which IC50 did it give?
The IC50 was 6 nM.

Which IC50 does the source give for `O=C(OCc1ccc(OC(F)(F)F)c(Cl)c1)N1CCc2cc(C(=O)N3CCc4[nH]nnc4C3)nn2CC1` [Example 37, 3-chloro-4-(trifluoromethoxy)benzyl 2-(4,5,6,7-tetrahydro-1H-[1,2,3]triazolo[4,5-c]pyridine-5-carbonyl)-7,8-dihydro-4H-pyrazolo[1,5-d][1,4]diazepine-6(5H)-carboxylate] here?
Its IC50 is 9 nM.

For `COc1cc(OC(F)(F)F)ccc1COC(=O)N1CCc2cc(C(=O)N3CCc4[nH]nnc4C3)nn2CC1` [Example 38, 2-methoxy-4-(trifluoromethoxy)benzyl 2-(4,5,6,7-tetrahydro-1H-[1,2,3]triazolo[4,5-c]pyridine-5-carbonyl)-7,8-dihydro-4H-pyrazolo[1,5-d][1,4]diazepine-6(5H)-carboxylate], which IC50 is on record?
The IC50 was 21 nM.

With `CC(C)(C)C(=O)Nc1cc(C#N)ccc1COC(=O)N1CCc2nc(C(=O)N3CCc4[nH]nnc4C3)nn2CC1` [Example 12, [4-Cyano-2-(2,2-dimethylpropanoylamino)phenyl]methyl 2-(1,4,6,7-tetrahydrotriazolo[4,5-c]pyridine-5-carbonyl)-5,6,8,9-tetrahydro-[1,2,4]triazolo[1,5-d][1,4]diazepine-7-carboxylate] as the compound, how does the IC50 read?
The IC50 was 67 nM.

Which IC50 does the source give for `O=C(OCc1ccc(OC(F)F)c(F)c1)N1CCc2cc(C(=O)N3CCc4[nH]nnc4C3)nn2CC1` [Example 31, 4-(difluoromethoxy)-3-fluorobenzyl 2-(4,5,6,7-tetrahydro-1H-[1,2,3]triazolo[4,5-c]pyridine-5-carbonyl)-7,8-dihydro-4H-pyrazolo[1,5-d][1,4]diazepine-6(5H)-carboxylate] here?
Its IC50 is 22 nM.

Which IC50 does the source give for `O=C(OCc1ccc(OC(F)(F)F)cc1)N1CCc2nc(C(=O)N3CCc4[nH]nnc4C3)nn2CC1` [Example 11, [4-(Trifluoromethoxy)phenyl]methyl 2-(1,4,6,7-tetrahydrotriazolo[4,5-c]pyridine-5-carbonyl)-5,6,8,9-tetrahydro-[1,2,4]triazolo[1,5-d][1,4]diazepine-7-carboxylate] here?
The IC50 was 15 nM.

`O=C(CCc1ccc(OC(F)(F)F)c(F)c1)N1CCc2nc(C(=O)N3CCc4[nH]nnc4C3)nn2CC1` [Example 21, 3-[3-fluoro-4-(trifluoromethoxy)phenyl]-1-[2-(1,4,6,7-tetrahydrotriazolo[4,5-c]pyridine-5-carbonyl)-5,6,8,9-tetrahydro-[1,2,4]triazolo[1,5-d][1,4]diazepin-7-yl]propan-1-one] was tested. Which IC50 did it give?
The IC50 was 17 nM.

For `O=C(OCc1ccc(OC(F)(F)F)c(Cl)c1)N1CCc2nc(C(=O)N3CCc4[nH]nnc4C3)cn2CC1` [Example 42, [3-chloro-4-(trifluoromethoxy)phenyl]methyl 2-(1,4,6,7-tetrahydrotriazolo[4,5-c]pyridine-5-carbonyl)-5,6,8,9-tetrahydroimidazo[1,2-d][1,4]diazepine-7-carboxylate], which IC50 is on record?
Its IC50 is 7 nM.

How did the IC50 turn out when `O=C(OCc1ccccc1)N1CCc2nc(C(=O)N3CCc4[nH]nnc4C3)cn2CC1` [Example 2, Benzyl 2-(1,4,6,7-tetrahydrotriazolo[4,5-c]pyridine-5-carbonyl)-5,6,8,9-tetrahydroimidazo[1,2-d][1,4]diazepine-7-carboxylate] was run?
The IC50 was 2010 nM.

How did the IC50 turn out when `CCc1cc(C#N)ccc1OCC(=O)N1CCc2cc(C(=O)N3CCc4[nH]nnc4C3)nn2CC1` [Example 16, 3-Ethyl-4-(2-oxo-2-(2-(4,5,6,7-tetrahydro-1H-[1,2,3]triazolo[4,5-c]pyridine-5-carbonyl)-7,8-dihydro-4H-pyrazolo[1,5-d][1,4]diazepin-6(5H)-yl)ethoxy)benzonitrile] was run?
The IC50 was 12 nM.

How did the IC50 turn out when `O=C(OCc1ccc(OC(F)(F)F)cc1)N1CCc2nc(C(=O)N3CCc4[nH]nnc4C3)cn2CC1` [Example 13, [4-(Trifluoromethoxy)phenyl]methyl 2-(1,4,6,7-tetrahydrotriazolo[4,5-c]pyridine-5-carbonyl)-5,6,8,9-tetrahydroimidazo[1,2-d][1,4]diazepine-7-carboxylate] was run?
Its IC50 is 17 nM.

For `O=C(CCc1ccc(OC(F)(F)F)c(Cl)c1)N1CCc2nc(C(=O)N3CCc4[nH]nnc4C3)nn2CC1` [Example 23, 3-[3-chloro-4-(trifluoromethoxy)phenyl]-1-[2-(1,4,6,7-tetrahydrotriazolo[4,5-c]pyridine-5-carbonyl)-5,6,8,9-tetrahydro-[1,2,4]triazolo[1,5-d][1,4]diazepin-7-yl]propan-1-one], which IC50 is on record?
The IC50 was 50 nM.
